Assay results: patent publication US4971983A, “Substituted 2-aminobenzothiazoles and derivatives useful as cerebrovascular agents” (Warner-Lambert Company, priority 1989, dated 1990)
Where two headings read alike, the source gives them in different places.

Assays:
[1] = tested on: MCAO rats; assay: Combined Middle Cerebral and Ipsilateral Common Carotid Occlusion in the Rat (MCAO): collateral zone and hemispheric infarct; assay type: in vivo, Adult male Fisher (F-344) rats; conditions: for response vs control in vivo at 3 mg/kg: 3 mg/kg IP; for response vs control in vivo at 15 mg/kg: 15 mg/kg IP
Text: Occlusion of the proximal part of the middle cerebral artery (MCA) is a common cause of stroke in man and can be accomplished surgically in experimental animals. […] We have combined distal MCA occlusion with ipsilateral common carotid ligation in an attempt to produce reproducible,focal cerebral ischemic infarcts.
The skin on the ventral side of the neck and the left temporal-parietal region was shaved. An incision was made in the neck and the left common carotid artery was doubly ligated and cut between the sutures. The incision was closed with 4-0 silk. Another incision was then made behind the left eye and the skin was held back with retractors. The exposed temporalis muscle was electrocauterized (Jarit Bipolar Coagulator) and partially removed. The upper part of the lower jaw bone was also removed. Deep surgery was performed with the aid of a Zeiss OPMI 99 surgical microscope. A 1 to 2-mm diameter craniotomy was made about 1 mm anterior to where the rostral end of the zygoma fuses to the squamosal bone. To prevent the drill from going through the dura, the burr hole was not drilled completely through the skull. Bone remaining after drilling was removed with forceps. The dura was pierced and reflected with a fine probe.
At this point the rat was injected with 0.3 ml of 2% Evans blue dye in saline via the tail vein. Evans blue binds to serum albumin and will not pass the blood-brain barrier unless damage has occurred, such as damage induced by ischemia. A small hook was then positioned under the MCA and the MCA was lifted away from the cortex. A jeweler-type bipolar forceps was introduced and the MCA was electrocauterized and separated. Gelfoam was put over the craniotomy and the wound was closed with 4-0 silk. The rats were then taken off the halothane and were allowed to wake up. Total anesthesia time was typically 30 minutes.
On Day 2 following MCA occlusion, the rats were anesthetized with ketamine (150 mg/kg, IP) and sacrificed. Cerebral tissue fixation was initiated by perfusion of 10% neutralized, buffered formalin for five minutes. Brains were removed and stored in the fixative until analysis.
For evaluation of the extent of cerebral ischemic injury, the brains were cut coronally in three different locations. The first section was at the level where the MCA was ligated. The other two sections were 2 mm anterior and 2 mm posterior to the first. Using an ausJena Citoval microscope with a drawing tube and an Apple II plus computer with a Houston Instrument digitizing pad, a software routine to measure the area of the ischemic damage as indicated by the extent of Evans blue tissue extravasation was employed. The software package was purchased from R&M Biometrics (Nashville, Tenn.) and is titled Bioquant II. From the lesion areas (mm^2) obtained from the Bioquant II program, we estimated the hemispheric extent (mm^3) of ischemic damage between the anterior and posterior sections by computing and adding the volume of two truncated cones.
The Bioquant II image analysis system was used to quantitate ischemic injury as it was identified by Evans blue extravasation.

[2] = tested on: rats; assay: Anesthesia in rats after dosing (impaired consciousness, lack of righting reflex; duration); assay type: in vivo, Adult male Fisher (F-344) rats; conditions: time from administration to regaining consciousness
Text: The duration of anesthesia is that time elapsed between administration of the test substance and the test animal regaining consciousness.

[3] = 10 mg/kg IP, 30 min and 24 h after occlusion, historical controls, read-out: Collateral Zone Infarct (% of Control)
[4] = 10 mg/kg IP, 30 min and 24 h after occlusion, historical controls, read-out: Hemispheric Infarct (% of Control)
[5] = 30 mg/kg IP, 30 min and 24 h after occlusion, historical controls, read-out: Collateral Zone Infarct (% of Control)
[6] = 30 mg/kg IP, 30 min and 24 h after occlusion, historical controls, read-out: Hemispheric Infarct (% of Control)
[7] = 30 min and 24 h after occlusion, historical controls, read-out: Collateral Zone Infarct (% of Control)
[8] = 30 min and 24 h after occlusion, historical controls, read-out: Hemispheric Infarct (% of Control)
[9] = ip, read-out: Collateral Zone Infarct (% of Control)
[10] = ip, read-out: Hemispheric Infarct (% of Control)

SMILES	response vs control in vivo at 10 mg/kg [1, 3] [%]	response vs control in vivo at 10 mg/kg [1, 4] [%]	response vs control in vivo at 30 mg/kg [1, 5] [%]	response vs control in vivo at 30 mg/kg [1, 6] [%]	also measured
CSc1ccc2nc(N)sc2c1 [Compound 2, 2-amino-6-methylthiobenzothiazole]	72	88	100	106	–
CS(=O)(=O)c1ccc2nc(N)sc2c1 [Compound 4, 2-amino-6-methylsulphonylbenzothiazole]	77	83	58	86	–
CCOc1ccc2nc(N)sc2c1 [Compound 6, 2-amino-6-ethoxybenzothiazole]	94	115	16	59	–
Nc1nc2ccc(Br)cc2s1 [Compound 7, 2-amino-6-bromobenzothiazole]	69	88	59	68	Anesthesia (duration) ([2]; 30 mg/kg IP): > 5 h
Nc1nc2ccc([N+](=O)[O-])cc2s1 [Compound 8, 2-amino-6-nitrobenzothiazole]	92	93	24	62	Anesthesia (duration) ([2]; 30 mg/kg IP): 4 h
Nc1nc2ccc(OC(F)(F)F)cc2s1 [Compound 9, 2-amino-6-trifluoromethoxybenzothiazole]	43	66	0	44	Anesthesia (duration) ([2]; 30 mg/kg IP): 1 to 2 h; response vs control in vivo at 3 mg/kg [1, 7]: 117%; response vs control in vivo at 3 mg/kg [1, 8]: 99%; response vs control in vivo at 15 mg/kg [1, 7]: 42%; response vs control in vivo at 15 mg/kg [1, 8]: 82%
Nc1nc2ccc(C(F)(F)F)cc2s1 [Compound 10, 2-amino-6-trifluoromethylbenzothiazole]	51	53	–	–	response vs control in vivo at 3 mg/kg [1, 7]: 156%; response vs control in vivo at 3 mg/kg [1, 8]: 131%
Cc1cc(C)c2nc(N)sc2c1 [Compound 12, 2-amino-4,6-dimethylbenzothiazole]	91	79	68	76	–
COc1cccc2sc(N)nc12 [Compound 13, 2-amino-4-methoxybenzothiazole]	115	121	–	–	Anesthesia (duration) ([2]; 10 mg/kg IP): > 5 h; response vs control in vivo at 3 mg/kg [1, 7]: 85%; response vs control in vivo at 3 mg/kg [1, 8]: 90%
Cc1cccc2sc(N)nc12 [Compound 14, 2-amino-4-methylbenzothiazole]	69	72	40	54	–
Nc1nc2c(C(F)(F)F)cccc2s1 [Compound 16, 2-amino-4-trifluoromethylbenzothiazole]	63	99	15	61	–
Nc1nc2c(F)cc(F)cc2s1 [Compound 17, 2-amino-4,6-difluorobenzothiazole]	137	139	105	115	–
COc1ccc2sc(N)nc2c1 [Compound 18, 2-amino-5-methoxybenzothiazole]	–	–	–	–	response vs control in vivo at 10 mg/kg [1, 9]: 124%; response vs control in vivo at 30 mg/kg [1, 9]: 54%; response vs control in vivo at 10 mg/kg [1, 10]: 117%; response vs control in vivo at 30 mg/kg [1, 10]: 82%
Nc1nc2cc(C(F)(F)F)ccc2s1 [Compound 19, 2-amino-5-trifluoromethylbenzothiazole]	48	63	53	79	–
Nc1nc2c(ccc3ccccc32)s1 [Compound 20, 2-amino-naptho[1,2-d]thiazole]	63	84	81	92	–
CCNc1nc2ccccc2s1 [Compound 21, 2-ethylaminobenzothiazole]	62	71	116	89	–
c1ccc(CNc2nc3ccccc3s2)cc1 [Compound 22, N-benzyl-2-benzothiazolamine]	56	76	98	89	–
CN1CCCC1CCNc1nc2ccccc2s1 (centres unmarked) [Compound 23, 2-[[2-(1-methyl-2-pyrrolidinyl)ethyl]amino]-benzothiazole]	66	84	18	72	–
